Reference: patent publication US10787462B2, “Heterocyclic compound” (TAKEDA PHARMACEUTICAL COMPANY LIMITED, priority 2015, dated 2020)

Target: T1, human RIPK1 (1-375) (Homo sapiens, UniProt Q13546)
T1 construct: human RIPK1 (1-375) gene; GST; made in house; host or cells: Sf-9 insect cells
T1 sequence (Q13546 1-375): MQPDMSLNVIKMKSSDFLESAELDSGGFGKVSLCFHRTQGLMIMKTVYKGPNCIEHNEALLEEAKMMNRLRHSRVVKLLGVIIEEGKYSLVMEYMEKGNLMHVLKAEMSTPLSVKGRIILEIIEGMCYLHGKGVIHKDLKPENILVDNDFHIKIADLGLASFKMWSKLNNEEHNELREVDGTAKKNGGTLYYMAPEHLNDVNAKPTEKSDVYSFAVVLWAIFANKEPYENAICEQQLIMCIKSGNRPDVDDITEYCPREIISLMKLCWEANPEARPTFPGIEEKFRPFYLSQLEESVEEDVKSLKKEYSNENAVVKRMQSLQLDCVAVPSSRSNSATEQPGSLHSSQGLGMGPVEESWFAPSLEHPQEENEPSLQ
Assay: Human RIPK1 enzyme inhibitory effect (ADP-Glo Kinase Assay)
Type: biochemical
Conditions: 10 μM test compound; well without enzyme = 100% inhibition
Outline: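 ADP-Glo luminescence read-out of ADP formed over 120 min at room temperature after adding 0.6 mM ATP solution (stock concentration). Compound and Sf-9-expressed, GST-purified RIPK1 (1-375) were first incubated together for 20 min in HEPES pH 7.5 buffer with MgCl2, Tween-20 and DTT.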

human RIPK1 enzyme inhibitory effect at 10 μM (% inhibition)	Compound
97%	(3S)-7-chloro-3-(3-chloro-1-oxo- 2-(pyrazin-2-ylmethyl)-2,4,5,7- tetrahydro-6H-pyrazolo[3,4- c]pyridin-6-yl)-5-methyl-2,3- dihydro-1,5-benzoxazepin-4(5H)- one [Example 74]

Same assay, conditions: 10 μM test compound; well without enzyme = 100% inhibition; 10 µM

human RIPK1 enzyme inhibitory effect at 10 μM (% inhibition)	Compound
95%	CN1C(=O)C(N2CCc3c(nn(Cc4ccccc4F)c3Cl)C2=O)CCc2nn(C)cc21 (stereo not drawn) [Example 120, 6-(3-chloro-2-(2-fluorobenzyl)-7-oxo-2,4,5,7-tetrahydro-6H-pyrazolo[3,4-c]pyridin-6-yl)-2,4-dimethyl-2,6,7,8-tetrahydropyrazolo[4,3-b]azepin-5(4H)-one]
99%	CN1C(=O)C(N2CCc3c(nn(Cc4ccccc4)c3Cl)C2=O)CCc2cn(C)nc21 (stereo not drawn) [Example 111, 6-(2-benzyl-3-chloro-7-oxo-2,4,5,7-tetrahydro-6H-pyrazolo[3,4-c]pyridin-6-yl)-2,8-dimethyl-2,5,6,8-tetrahydropyrazolo[3,4-b]azepin-7(4H)-one]
93%	CN1C(=O)C(N2CCc3c(nn(Cc4c(F)cccc4F)c3Cl)C2=O)CCc2c1cnn2C (stereo not drawn) [Example 134, 6-(3-chloro-2-(2,6-difluorobenzyl)-7-oxo-2,4,5,7-tetrahydro-6H-pyrazolo[3,4-c]pyridin-6-yl)-1,4-dimethyl-4,6,7,8-tetrahydropyrazolo[4,3-b]azepin-5(1H)-one]
88%	CN1C(=O)C(N2CCc3c(nn(Cc4ccccc4)c3Cl)C2=O)CCc2ccncc21 (stereo not drawn) [Example 102, 3-(2-benzyl-3-chloro-7-oxo-2,4,5,7-tetrahydro-6H-pyrazolo[3,4-c]pyridin-6-yl)-1-methyl-1,3,4,5-tetrahydro-2H-pyrido[3,4-b]azepin-2-one]

Same assay, conditions: read-out: human RIPK1 enzyme inhibitory effect at 10 μM (% inhibition), 10 μM test compound; well without enzyme = 100% inhibition

Compound	inhibition at 10 µM
CN1C(=O)C(n2ccc3cn(Cc4ccccc4)nc3c2=O)CCc2ccccc21 (stereo not drawn) [Example 6, 3-(2-benzyl-7-oxo-2,7-dihydro-6H-pyrazolo[3,4-c]pyridin-6-yl)-1-methyl-1,3,4,5-tetrahydro-2H-1-benzazepin-2-one]	96%
CN1C(=O)[C@@H](N2CCc3cn(Cc4ccccc4)nc3C2=O)COc2ccc(Br)cc21 [Example 40, (3S)-3-(2-benzyl-7-oxo-2,4,5,7-tetrahydro-6H-pyrazolo[3,4-c]pyridin-6-yl)-7-bromo-5-methyl-2,3-dihydro-1,5-benzoxazepin-4(5H)-one]	100%
CN1C(=O)C(N2CCc3c(nn(Cc4ccccc4)c3Cl)C2=O)CCc2nn(C)cc21 (stereo not drawn) [Example 92, 6-(2-benzyl-3-chloro-7-oxo-2,4,5,7-tetrahydro-6H-pyrazolo[3,4-c]pyridin-6-yl)-2,4-dimethyl-2,6,7,8-tetrahydropyrazolo[4,3-b]azepin-5(4H)-one]	98%
CN1C(=O)[C@@H](N2CCc3c(nn(Cc4ccccc4)c3Cl)C2=O)COc2ccc(C(N)=O)cc21 [Example 81, (3S)-3-(2-benzyl-3-chloro-7-oxo-2,4,5,7-tetrahydro-6H-pyrazolo[3,4-c]pyridin-6-yl)-5-methyl-4-oxo-2,3,4,5-tetrahydro-1,5-benzoxazepine-7-carboxamide]	101%
CN1C(=O)[C@@H](N2CCc3cn(CCc4ccccc4)nc3C2=O)COc2ccccc21 [Example 23, (3S)-5-methyl-3-(7-oxo-2-(2-phenylethyl)-2,4,5,7-tetrahydro-6H-pyrazolo[3,4-c]pyridin-6-yl)-2,3-dihydro-1,5-benzoxazepin-4(5H)-one]	91%
CC(c1ccccc1)n1cc2c(n1)C(=O)N([C@H]1COc3ccccc3N(C)C1=O)CC2 (stereo partly drawn) [Example 21, (3S)-5-methyl-3-(7-oxo-2-(1-phenylethyl)-2,4,5,7-tetrahydro-6H-pyrazolo[3,4-c]pyridin-6-yl)-2,3-dihydro-1,5-benzoxazepin-4(5H)-one]	100%
CN1C(=O)[C@@H](N2CCc3c(nn(Cc4ccccc4)c3C(=O)O)C2=O)COc2ccccc21 [Example 53, 2-benzyl-6-((3S)-5-methyl-4-oxo-2,3,4,5-tetrahydro-1,5-benzoxazepin-3-yl)-7-oxo-4,5,6,7-tetrahydro-2H-pyrazolo[3,4-c]pyridine-3-carboxylic acid]	67%
CN1C(=O)[C@@H](N2CCc3cn(Cc4c(F)cccc4F)nc3C2=O)COc2cc(Br)ccc21 [Example 110, (3S)-8-bromo-3-(2-(2,6-difluorobenzyl)-7-oxo-2,4,5,7-tetrahydro-6H-pyrazolo[3,4-c]pyridin-6-yl)-5-methyl-2,3-dihydro-1,5-benzoxazepin-4(5H)-one]	100%
Cc1ccccc1Cn1cc2c(n1)C(=O)N([C@H]1COc3ccccc3N(C)C1=O)CC2 [Example 22, (3S)-5-methyl-3-(2-(2-methylbenzyl)-7-oxo-2,4,5,7-tetrahydro-6 H-pyrazolo[3,4-c]pyridin-6-yl)-2,3-dihydro-1,5-benzoxazepin-4(5H)-one]	100%
O=C1Nc2ccccc2CCC1N1Cc2cn(Cc3ccccc3)nc2C1=O (stereo not drawn) [Example 4, 3-(2-benzyl-6-oxo-2,6-dihydropyrrolo[3,4-c]pyrazol-5(4H)-yl)-1,3,4,5-tetrahydro-2H-1-benzazepin-2-one]	80%
CN1C(=O)[C@@H](N2CCc3cn(Cc4ccccc4)nc3C2=O)COc2ccc(C#N)cc21 [Example 14, (3S)-3-(2-benzyl-7-oxo-2,4,5,7-tetrahydro-6H-pyrazolo[3,4-c]pyridin-6-yl)-5-methyl-4-oxo-2,3,4,5-tetrahydro-1,5-benzoxazepine-7-carbonitrile]	100%

Further lines, results first:

inhibition at 10 µM	Compound
100%	CN1C(=O)[C@@H](N2CCc3cn(Cc4ccc(Cl)cc4F)nc3C2=O)COc2ccccc21 [Example 168, (3S)-3-(2-(4-chloro-2-fluorobenzyl)-7-oxo-2,4,5,7-tetrahydro-6H-pyrazolo[3,4-c]pyridin-6-yl)-5-methyl-2,3-dihydro-1,5-benzoxazepin-4(5H)-one]
100%	CN1C(=O)[C@@H](N2CCc3c(nn(Cc4ccccc4)c3Cl)C2=O)COc2cc(-c3ncco3)ccc21 [Example 139, (3S)-3-(2-benzyl-3-chloro-7-oxo-2,4,5,7-tetrahydro-6H-pyrazolo[3,4-c]pyridin-6-yl)-5-methyl-8-(1,3-oxazol-2-yl)-2,3-dihydro-1,5-benzoxazepin-4(5H)-one]
98%	CN1C(=O)C(N2CCc3c(nn(Cc4ccccc4F)c3Cl)C2=O)CCc2c1cnn2C (stereo not drawn) [Example 129, 6-(3-chloro-2-(2-fluorobenzyl)-7-oxo-2,4,5,7-tetrahydro-6H-pyrazolo[3,4-c]pyridin-6-yl)-1,4-dimethyl-4,6,7,8-tetrahydropyrazolo[4,3-b]azepin-5(1H)-one]
80%	CN1C(=O)[C@@H](N2CCc3c(nn(Cc4ccccc4)c3-c3cnn(C)c3)C2=O)COc2ccccc21 [Example 169, (3S)-3-(2-benzyl-3-(1-methyl-1H-pyrazol-4-yl)-7-oxo-2,4,5,7-tetrahydro-6H-pyrazolo[3,4-c]pyridin-6-yl)-5-methyl-2,3-dihydro-1,5-benzoxazepin-4(5H)-one]
100%	O=C1Nc2cc(Cl)ccc2OC[C@@H]1N1CCc2c(nn(Cc3ccccc3)c2Cl)C1=O [Example 144, (3S)-3-(2-benzyl-3-chloro-7-oxo-2,4,5,7-tetrahydro-6H-pyrazolo[3,4-c]pyridin-6-yl)-7-chloro-2,3-dihydro-1,5-benzoxazepin-4(5H)-one]
